“And” between values parts separate entries of the source, which are not always exact repeats. Equal values may be shown once. Read-outs that look alike come from different tables or passages of the source.
Experiments:
[1] = biological target: AChE isolated from electric eel (EeAChE) (Electrophorus electricus, UniProt O42275); assay: biochemical; settings: for Selectivity BuChE/AChE: SI = ratio of IC50 for BuChE/IC50 for AChE, >1 means stronger inhibition of AChE; for IC50: mean ± SD, n = three independent experiments, ATCh 40 µM
[2] = biological target: BuChE obtained from equine serum (EqBuChE) (Equus caballus, UniProt P81908); assay: biochemical; type: biochemical; settings: for IC50: mean ± SD, n = three independent experiments, BTCh 40 µM; for fold less active against BuChE than 2d: compared with 2-chlorobenzylidene analogue 2d
[3] = test system: HepG2 cells; settings: cited from earlier work
[4] = biological target: eeAChE (Electrophorus electricus, UniProt O42275); assay: Type of inhibition, Lineweaver–Burk plot and nonlinear regression; type: biochemical
Protocol: The type of inhibition could be distinguished using a Lineweaver–Burk plot and corresponding comparison of two kinetic parameters: Michaelis constant (KM) and maximum velocity (Vm) of uninhibited and inhibited reaction. […].
. The dependence absorbance vs. time was observed and the reaction rate was calculated. All measurements were carried out in duplicate and the average values of reaction rate were used for the construction of the Lineweaver–Burk plot. Furthermore, the dependencies vs. concentration of ATCh in absence and presence of inhibitor 2l were analyzed by nonlinear regression using GraphPad Prism 9.0.1 for Windows (GraphPad Software, San Diego, CA, USA, www.graphpad.com). From obtained equations of regression curves in the Lineweaver–Burk plot, the values of Michaelis constant (KM) and maximum velocity (Vm) were calculated. […]. Based on all obtained results, the type of inhibition was identified.

[5] = nonlinear regression, mixed model inhibition

Sequence of AChE isolated from electric eel (EeAChE) (O42275 24-633): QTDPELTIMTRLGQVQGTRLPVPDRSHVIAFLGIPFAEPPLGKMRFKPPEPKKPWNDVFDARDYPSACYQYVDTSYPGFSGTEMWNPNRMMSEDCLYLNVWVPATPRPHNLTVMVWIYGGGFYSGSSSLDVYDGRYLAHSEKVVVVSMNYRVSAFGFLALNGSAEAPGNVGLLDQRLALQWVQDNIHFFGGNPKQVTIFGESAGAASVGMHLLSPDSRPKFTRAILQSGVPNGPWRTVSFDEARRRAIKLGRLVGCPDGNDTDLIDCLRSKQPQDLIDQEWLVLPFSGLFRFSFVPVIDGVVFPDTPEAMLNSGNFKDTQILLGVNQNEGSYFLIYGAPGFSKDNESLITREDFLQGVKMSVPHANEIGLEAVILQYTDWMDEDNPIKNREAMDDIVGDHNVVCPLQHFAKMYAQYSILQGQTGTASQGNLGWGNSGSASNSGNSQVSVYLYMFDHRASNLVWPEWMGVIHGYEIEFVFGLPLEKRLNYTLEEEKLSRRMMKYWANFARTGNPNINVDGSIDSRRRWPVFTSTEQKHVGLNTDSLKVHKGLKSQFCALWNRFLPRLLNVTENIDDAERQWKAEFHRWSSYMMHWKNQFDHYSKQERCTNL
Sequence of eeAChE (O42275 24-633): as above
Sequence of BuChE obtained from equine serum (EqBuChE) (P81908 whole entry): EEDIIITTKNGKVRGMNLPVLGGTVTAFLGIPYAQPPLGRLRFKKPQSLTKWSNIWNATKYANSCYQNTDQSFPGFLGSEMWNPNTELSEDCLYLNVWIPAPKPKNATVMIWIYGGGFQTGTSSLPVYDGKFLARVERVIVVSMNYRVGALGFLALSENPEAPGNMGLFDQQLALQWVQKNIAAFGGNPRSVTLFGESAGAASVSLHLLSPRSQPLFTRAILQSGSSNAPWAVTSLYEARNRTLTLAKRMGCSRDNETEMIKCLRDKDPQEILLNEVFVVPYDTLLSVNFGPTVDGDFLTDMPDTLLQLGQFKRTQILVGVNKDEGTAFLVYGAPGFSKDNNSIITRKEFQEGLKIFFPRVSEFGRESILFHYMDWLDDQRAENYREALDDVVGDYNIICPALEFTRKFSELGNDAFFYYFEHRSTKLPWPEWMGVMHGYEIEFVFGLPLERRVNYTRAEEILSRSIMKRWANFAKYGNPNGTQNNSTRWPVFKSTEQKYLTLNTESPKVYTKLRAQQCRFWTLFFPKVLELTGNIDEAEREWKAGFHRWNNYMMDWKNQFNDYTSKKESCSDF

SMILES	Selectivity BuChE/AChE [1]	IC50 [1]	IC50 ([2]; read-out: IC50 BuChE)	IC50 [3]	Type of inhibition ([4]; Lineweaver–Burk plot, KM and Vm, ATCh 20–80 µM, inhibitor 10–40 µM)	Ki [4, 5]	alpha [4, 5]	fold less active against BuChE than 2d [2]	improved activity against BuChE ([2]; fold, 2k vs. 2o)	IC50 ([2]; IC50 BuChE)
O=C(NN=C1CCCC1)c1ccc(C(F)(F)F)cc1 [3b]	2.9	69.2 ± 1 µM	200 ± 13.2 µM	> 100 µM	–	–	–	–	–	–
O=C(NN=Cc1cccc(Br)c1)c1ccc(C(F)(F)F)cc1 [2n, N’-(3-Bromobenzylidene)-4-(trifluoromethyl)benzohydrazide]	1.7	96.9 ± 1.3 µM	166.3 ± 0.8 µM	–	–	–	–	–	–	–
O=C(NN=Cc1ccc(C(F)(F)F)cc1)c1ccc(C(F)(F)F)cc1 [2l, 4-(Trifluoromethyl)-N’-[4-(trifluoromethyl)benzylidene]benzohydrazide]	3.7	46.8 ± 2.1 µM	175 ± 8.3 µM	> 100 µM	mixed type of inhibition	54.6 µM	1.28	approximately 3 fold	–	–
O=C(N/N=C/c1cccc(Cl)c1)c1ccc(C(F)(F)F)cc1 [2c]	3.4	77.1 ± 0.03 µM	261 ± 40.7 µM	> 100 µM	–	–	–	–	–	–
O=C(NN=C1CCCCC1)c1ccc(C(F)(F)F)cc1 [3c]	1.2	61.2 ± 1.3 µM	74.7 ± 2.7 µM	> 100 µM	–	–	–	–	–	–
O=C(N/N=C/c1cc(Cl)ccc1O)c1ccc(C(F)(F)F)cc1 [2h]	2.1	138 ± 3 µM	287 ± 12.6 µM	> 100 µM	–	–	–	–	–	–
O=C(NN=Cc1ccccc1Br)c1ccc(C(F)(F)F)cc1 [2o, N’-(2-Bromobenzylidene)-4-(trifluoromethyl)benzohydrazide]	0.9	62.6 ± 3.2 µM	54.2 ± 0.1 µM	–	–	–	–	–	6.3 ×	–
O=C(N/N=C/c1ccc(Cl)cc1)c1ccc(C(F)(F)F)cc1 [2b]	2.9	88.5 ± 1.4 µM	254 ± 3.3 µM	> 100 µM	–	–	–	–	–	–
O=C(N/N=C/c1ccccc1O)c1ccc(C(F)(F)F)cc1 [2g]	18.6	47.4 ± 1.8 µM	881.1 ± 8 µM	> 100 µM	–	–	–	–	–	–
O=C(NN=Cc1cccc([N+](=O)[O-])c1)c1ccc(C(F)(F)F)cc1 [2r, N’-(3-Nitrobenzylidene)-4-(trifluoromethyl)benzohydrazide]	1.6	81.3 ± 2.6 µM	133 ± 10.2 µM	–	–	–	–	–	–	–
O=C(NN=Cc1ccccc1[N+](=O)[O-])c1ccc(C(F)(F)F)cc1 [2s, N’-(2-Nitrobenzylidene)-4-(trifluoromethyl)benzohydrazide]	1.6	59.7 ± 5.8 µM	93.1 ± 4.9 µM	–	–	–	–	–	–	–
O=C(N/N=C/c1ccc([N+](=O)[O-])cc1)c1ccc(C(F)(F)F)cc1 [2m]	3.2	60 ± 0.4 µM	190.6 ± 1.1 µM	> 100 µM	–	–	–	–	–	–
O=C(N/N=C/c1ccccc1Cl)c1ccc(C(F)(F)F)cc1 [2d]	0.5	128 ± 10 µM	–	> 100 µM	–	–	–	–	–	63.6 ± 0.9 µM
COc1ccc(/C=N/NC(=O)c2ccc(C(F)(F)F)cc2)cc1 [2j]	2.6	109 ± 2.2 µM	279 ± 2.9 µM	> 100 µM	–	–	–	–	–	–
O=C(N/N=C/c1ccccc1)c1ccc(C(F)(F)F)cc1 [2a]	–	75.9 ± 1.6 µM	651 ± 31.5 µM	> 100 µM	–	–	–	–	–	–
O=C(N/N=C/c1cccc(O)c1)c1ccc(C(F)(F)F)cc1 [2f]	3.5	70.4 ± 2.8 µM	250 ± 7.5 µM	> 100 µM	–	–	–	–	–	–
O=C(NN=Cc1ccccc1C(F)(F)F)c1ccc(C(F)(F)F)cc1 [2q, 4-(Trifluoromethyl)-N’-[2-(trifluoromethyl)benzylidene]benzohydrazide]	0.4	50 ± 1.6 µM	19.1 ± 0.5 µM	–	–	–	–	–	–	–
O=C(NN=Cc1cccc(C(F)(F)F)c1)c1ccc(C(F)(F)F)cc1 [2p, 4-(Trifluoromethyl)-N’-[3-(trifluoromethyl)benzylidene]benzohydrazide]	1.3	49.9 ± 1.4 µM	63.6 ± 2.8 µM	–	–	–	–	–	–	–
CC(C)=NNC(=O)c1ccc(C(F)(F)F)cc1 [3a]	6.1	69.7 ± 5.2 µM	424 µM	> 100 µM	–	–	–	–	–	–
O=C(N/N=C/c1ccc(O)cc1)c1ccc(C(F)(F)F)cc1 [2e]	2.3	102 ± 3.8 µM	229 ± 14.5 µM	> 100 µM	–	–	–	–	–	–
Cc1ccc(/C=N/NC(=O)c2ccc(C(F)(F)F)cc2)cc1 [2i]	2.8	91.4 ± 6.2 µM	253 ± 9.6 µM	> 100 µM	–	–	–	–	–	–
NNC(=O)c1ccc(C(F)(F)F)cc1 [compound 1, 4-(Trifluoromethyl)benzohydrazide]	–	–	–	> 100 µM	–	–	–	–	–	–
Cc1ccc(C(=O)NN=Cc2ccc(C(F)(F)F)cc2)cc1 [2u, 4-Methyl-N’-[4-(trifluoromethyl)benzylidene]benzohydrazide]	3.3	75.3 ± 1.5 µM	245 ± 7 µM	–	–	–	–	–	–	–
CC12CCC(CC1=NNC(=O)c1ccc(C(F)(F)F)cc1)C2(C)C (centres unmarked) [3d]	1.0	59.3 ± 1.8 µM	57 µM and 57.2 µM	> 100 µM	–	–	–	–	–	–
O=C(NN=Cc1ccc(C(F)(F)F)cc1)c1ccccc1 [2t, N’-[4-(Trifluoromethyl)benzylidene]benzohydrazide]	3.0	62.9 ± 0.8 µM	189.8 ± 1.7 µM	–	–	–	–	–	–	–
O=C(N/N=C/c1ccc(Br)cc1)c1ccc(C(F)(F)F)cc1 [2k]	5.5	62.1 ± 0.02 µM	342 ± 11.3 µM	> 100 µM	–	–	–	approximately 3 fold	–	–

— article PMC7918878 (Molecules, 2021)
